BP, CS/CS113 and SP data for 40 compounds are collected here from patent US7736537B1, “Replacement solvents having improved properties for refrigeration flushes” (Mainstream Engineering Corp., priority 2008, dated 2010).

For data set [1] the following is noted: Table 1; cited from earlier work.
On data set [2], the source says:
Parameters such as the lethal dose 50 (LD50), lethal concentration 50 (LC50), cardiac sensitization, skin irritation, and mutagenicity (e.g., via the Ames test) can be used as toxicity metrics. The LDn or LCn abbreviations, where n is the percent lethality, are used for the dose of a toxicant lethal to n % of a test population. […] Cardiac sensitization is a measure of the ability of a compound to cause cardiac arrhythmia under stress.
The property modification components are chosen from a list of potential replacement solvents. These compounds included halogenated compounds such as halogenated acetates, alcohols, alkanes, cycloalkanes, alkenes, cycloalkenes, amines, anhydrides, aromatics, carbonyls, diones, esters, ethers, heterocyclics and ketones.

For data set [3] the following is noted: solubility parameter, Table 1; cited from earlier work.
[4] abbreviates: cardiac sensitization relative to CFC-113.

Read-outs that look alike come from different tables or passages of the source.

For the compound `FC(F)(Cl)C(F)(Cl)Cl` [CFC-113, 1,1,2-trichloro-1,2,2-trifluoroethane, reference compound], in data set [1], the BP is reported as 47.6 C.
Regarding `FC1C(F)C(F)(F)C(F)(F)C(F)C1(F)F` (stereo not shown) [1H,2H,4H-nonafluorocyclohexane], the CS/CS113 in data set [2] (setting [4]) was 18.5. Moreover, the SP in data set [3] is on record as 7.02 (cal/cm^3)^1/2. Moreover, the BP in data set [1] is 65.0 C.
Consider `FC(F)(F)COCC(F)(F)Br` [(2,2,2-trifluoroethyl)(2-bromo-2,2-difluoroethyl)ether], for which the CS/CS113 in data set [2] (setting [4]) came to 52.1. Moreover, the SP in data set [3] is on record as 7.64 (cal/cm^3)^1/2. Besides, the BP in data set [1] is recorded as 73.0 C.
As to `O=C(CC(F)(F)F)CC(F)(F)Br` [1,1,5,5,5-pentafluoro-1-bromo-3-pentanone], the CS/CS113 in data set [2] (setting [4]) was 34.2. The SP in data set [3] is 7.89 (cal/cm^3)^1/2. Moreover, in data set [1], the BP was 118.4 C.
On to `FC(F)(Br)C=C(C(F)(F)F)C(F)(F)F` [1,1,1,4,4-pentafluoro-4-bromo-2-trifluoromethyl-2-butene], for which, in data set [2] (setting [4]), the CS/CS113 was 105.5. In addition, in data set [3], the SP is on record as 6.77 (cal/cm^3)^1/2. In addition, in data set [1], the BP is given as 61.0 C.
In the case of `F/C(OC(F)(F)Br)=C(\F)C(F)(F)F` [(Z)-1-(bromodifluoromethoxy)-1,2,3,3,3-pentafluoro-1-propene], the CS/CS113 in data set [2] (setting [4]) came out at 70.1. Moreover, the SP in data set [3] is given as 7.22 (cal/cm^3)^1/2. The BP in data set [1] is recorded as 65.2 C.
In the case of `FC(F)(F)/C=C\C(F)(F)Br` [(Z)-1-bromo-1,1,4,4,4-pentafluoro-2-butene], the CS/CS113 in data set [2] (setting [4]) is given as 36.6. In addition, the SP in data set [3] is listed as 7.25 (cal/cm^3)^1/2. The BP in data set [1] was 40.0 C.
For `F/C(=C(/Br)C(F)(F)F)C(F)(F)F` [(E)-2-bromo-1,1,1,3,4,4,4-heptafluoro-2-butene], the CS/CS113 in data set [2] (setting [4]) came to 48.6. In addition, the SP in data set [3] is given as 6.82 (cal/cm^3)^1/2. Also, in data set [1], the BP is listed as 49.0 C.
As to `COC(=O)C(F)(F)C(F)(F)F` [methyl pentafluoropropanoate], the CS/CS113 in data set [2] (setting [4]) is listed as 27.0. Further, the SP in data set [3] was 7.77 (cal/cm^3)^1/2. In data set [1], the BP is listed as 59.5 C.
In the case of `FC(F)OC(Cl)C(F)(F)F` (stereo not shown) [1-chloro-2,2,2-trifluoroethyl difluoromethyl ether, reference compound], the CS/CS113 in data set [2] (setting [4]) is 50.2. Also, the SP in data set [3] was 7.58 (cal/cm^3)^1/2. For the same compound, the BP in data set [1] was 48.8 C.
As for `C=CC(F)(F)Br` [3-bromo-3,3-difluoro-1-propene], the CS/CS113 in data set [2] (setting [4]) was found to be 5.9. In addition, the SP in data set [3] is 7.89 (cal/cm^3)^1/2. In data set [1], the BP is recorded as 42.0 C.
For the compound `FC(F)(F)/C(Cl)=C(\Cl)C(F)(F)F` [(E)-2,3-dichlorohexafluoro-2-butene], the CS/CS113 in data set [2] (setting [4]) was determined as 72.4. In addition, the SP in data set [3] was 7.15 (cal/cm^3)^1/2. For the same compound, the BP in data set [1] was 68.5 C.
`F/C(=C(/F)C(F)(F)Br)C(F)(F)F` [(E)-1-bromo-perfluoro-2-butene]: the CS/CS113 in data set [2] (setting [4]) was 41.4. Also, the SP in data set [3] is 6.85 (cal/cm^3)^1/2. The BP in data set [1] is recorded as 48.0 C.
Consider `FC1(F)C(Cl)=C(Cl)C(F)(F)C1(F)F` [1,2-dichloro-hexafluoro-cyclopentene], for which the CS/CS113 in data set [2] (setting [4]) turned out to be 9.9. Further, in data set [3], the SP is listed as 7.90 (cal/cm^3)^1/2. Besides, the BP in data set [1] is on record as 90.0 C.
Take `O=C(CC(F)(F)F)C(F)(F)Br` [1,1,4,4,4-pentafluoro-1-bromo-2-butanone]: the CS/CS113 in data set [2] (setting [4]) is given as 17.1. Besides, in data set [3], the SP is recorded as 7.89 (cal/cm^3)^1/2. The BP in data set [1] was 89.0 C.
For the compound `FC(C(F)C(F)(F)C(F)(F)F)C(F)(F)F` (stereo not shown) [2H,3H-decafluoropentane], the CS/CS113 in data set [2] (setting [4]) is on record as 91.5. Moreover, the SP in data set [3] is 6.84 (cal/cm^3)^1/2. For the same compound, the BP in data set [1] is given as 55.0 C.
On to `FC(F)(F)/C=C(/Br)C(F)(F)F` [(E)-2-bromo-1,1,1,4,4,4-hexafluoro-2-butene], for which, in data set [2] (setting [4]), the CS/CS113 is listed as 42.7. The SP in data set [3] is on record as 7.06 (cal/cm^3)^1/2. Moreover, the BP in data set [1] is reported as 45.1 C.
On to `FC(F)(F)O/C=C/OC(F)(F)Br` [(E)-1-(bromodifluoromethoxy)-2-(trifluoromethoxy)ethene], for which the CS/CS113 in data set [2] (setting [4]) is 144.9. Further, the SP in data set [3] was 7.79 (cal/cm^3)^1/2. Moreover, the BP in data set [1] is given as 76.5 C.
In the case of `FC(F)(F)/C=C/OC(F)(F)Br` [(E)-1-(bromodifluoromethoxy)-2-(trifluoromethyl)ethene], in data set [2] (setting [4]), the CS/CS113 is recorded as 54.3. The SP in data set [3] is given as 7.73 (cal/cm^3)^1/2. Moreover, in data set [1], the BP is given as 57.8 C.
On to `FC(F)(F)/C=C\OC(F)(F)Br` [(Z)-1-(bromodifluoromethoxy)-2-(trifluoromethyl)ethene], for which the CS/CS113 in data set [2] (setting [4]) was determined as 54.3. Also, in data set [3], the SP was 7.63 (cal/cm^3)^1/2. The BP in data set [1] is given as 57.8 C.
Regarding `C=C(OC(F)(F)Br)C(F)(F)F` [1-(bromodifluoromethoxy)-1-(trifluoromethyl)ethene], the CS/CS113 in data set [2] (setting [4]) is given as 27.7. For the same compound, in data set [3], the SP is on record as 7.67 (cal/cm^3)^1/2. For the same compound, in data set [1], the BP is recorded as 66.3 C.
On to `FC(F)(F)/C=C/C(F)(F)Br` [(E)-1-bromo-1,1,4,4,4-pentafluoro-2-butene], for which the CS/CS113 in data set [2] (setting [4]) is 36.6. In addition, in data set [3], the SP is recorded as 7.37 (cal/cm^3)^1/2. In data set [1], the BP is listed as 40.0 C.
For `FC=CC(F)(F)Br` [3-bromo-1,3,3-trifluoropropene], the CS/CS113 in data set [2] (setting [4]) came to 12.9. Moreover, the SP in data set [3] is on record as 7.73 (cal/cm^3)^1/2. In addition, the BP in data set [1] was 41.5 C.
`F/C(=C(\F)C(F)(F)Br)C(F)(F)F` [(Z)-1-bromo-perfluoro-2-butene]: in data set [2] (setting [4]), the CS/CS113 amounted to 41.4. The SP in data set [3] was 6.78 (cal/cm^3)^1/2. Moreover, in data set [1], the BP was 48.0 C.
In the case of `COC(F)=C(C(F)(F)F)C(F)(F)F` [1-methoxy-2-trifluoromethyl-1,3,3,3-tetrafluoro-1-propene], the CS/CS113 in data set [2] (setting [4]) is given as 154.6. Besides, in data set [3], the SP was 7.09 (cal/cm^3)^1/2. Also, the BP in data set [1] is listed as 44.5 C.
For `C=C(Br)C(F)(F)C(F)(F)F` [2-bromo-3,3,4,4,4-pentafluorobutene], the CS/CS113 in data set [2] (setting [4]) is on record as 10.5. Also, the SP in data set [3] is given as 7.19 (cal/cm^3)^1/2. Further, the BP in data set [1] was 66.1 C.
`CCOC(F)(F)C(F)(F)C(F)(F)C(F)(F)F` [ethyl-perfluorobutyl ether]: the CS/CS113 in data set [2] (setting [4]) amounted to 69.0. Moreover, the SP in data set [3] is 6.85 (cal/cm^3)^1/2. The BP in data set [1] is on record as 73.0 C.
With `C=C(F)C(F)(F)Br` [3-bromo-2,3,3-trifluoropropene], the CS/CS113 in data set [2] (setting [4]) turned out to be 6.1. Also, the SP in data set [3] was 7.66 (cal/cm^3)^1/2. In addition, in data set [1], the BP is 41.6 C.
On to `FC(OC(F)(F)C(F)(F)C(F)(F)F)C(F)(F)F` (stereo not shown) [heptafluoropropyl 1,2,2,2-tetrafluoroethyl ether], for which, in data set [2] (setting [4]), the CS/CS113 worked out at 195.7. For the same compound, the SP in data set [3] is given as 6.62 (cal/cm^3)^1/2. For the same compound, in data set [1], the BP was 41.0 C.
With `FC(F)(F)C(=CBr)C(F)(F)F` [1-bromo-2-(trifluoromethyl)-3,3,3-trifluoropropene], the CS/CS113 in data set [2] (setting [4]) came out at 49.4. In data set [3], the SP was 6.95 (cal/cm^3)^1/2. In addition, in data set [1], the BP is recorded as 49.3 C.
In the case of `FC1(F)C(Cl)=C(Cl)C(F)(F)C(F)(F)C1(F)F` [1,2-dichloro-3,3,4,4,5,5,6,6-octafluoro-cyclohexene], the CS/CS113 in data set [2] (setting [4]) came out at 15.5. Further, the SP in data set [3] is recorded as 7.55 (cal/cm^3)^1/2. The BP in data set [1] was 123.8 C.
Consider `Fc1c(F)c(F)c(C(F)(F)Br)c(F)c1F` [(bromodifluoromethyl)-pentafluorobenzene], for which the CS/CS113 in data set [2] (setting [4]) is listed as 28.2. For the same compound, the SP in data set [3] is listed as 7.63 (cal/cm^3)^1/2. Moreover, in data set [1], the BP is 153.3 C.
Compound `FC(F)OC(F)(F)C(F)Cl` (stereo not shown) [2-chloro-1,1,2-trifluoroethyl difluoromethyl ether, reference compound] gave a CS/CS113 in data set [2] of 35.5. The SP in data set [3] was 7.71 (cal/cm^3)^1/2. In data set [1], the BP was 56.7 C.
Take `O=C(OC(=O)C(F)(F)F)C(F)(F)F` [trifluoroacetic anhydride]: the CS/CS113 in data set [2] came to 236.9. In addition, the SP in data set [3] was 7.29 (cal/cm^3)^1/2. The BP in data set [1] is recorded as 40.2 C.
Regarding `OC(C(F)(F)F)(C(F)(F)F)C(F)(F)F` [1,1,1,3,3,3-hexafluoro-2-(trifluoromethyl)-2-propanol], the CS/CS113 in data set [2] (setting [4]) was 61.2. In addition, in data set [3], the SP was 6.84 (cal/cm^3)^1/2. For the same compound, the BP in data set [1] is 46.0 C.
In the case of `Fc1c(F)c(Br)c(F)c(C(F)(F)F)c1F` [3-bromoheptafluorotoluene], in data set [2] (setting [4]), the CS/CS113 turned out to be 21.1. The SP in data set [3] is reported as 7.66 (cal/cm^3)^1/2. In data set [1], the BP is 153.0 C.
Consider 1-bromo-bis(perfluoromethyl)ethylene, for which the CS/CS113 in data set [2] (setting [4]) is recorded as 42.7. Further, the SP in data set [3] is on record as 7.06 (cal/cm^3)^1/2. For the same compound, the BP in data set [1] is 45.1 C.
Consider `F/C(OC(F)(F)Br)=C(/F)C(F)(F)F` [(E)-1-(bromodifluoromethoxy)-1,2,3,3,3-pentafluoro-1-propene], for which, in data set [2] (setting [4]), the CS/CS113 turned out to be 70.1. Moreover, the SP in data set [3] is on record as 7.25 (cal/cm^3)^1/2. In data set [1], the BP is 65.2 C.
Take `FC(F)=C(F)OC(F)(F)C(F)(F)Br` [2-bromo-1,1,2,2-tetrafluoroethoxy-trifluoroethene]: in data set [2] (setting [4]), the CS/CS113 amounted to 33.0. In addition, the SP in data set [3] was 7.30 (cal/cm^3)^1/2. Besides, the BP in data set [1] is 81.9 C.
As to `Fc1c(F)c(C(F)(F)F)c(F)c(F)c1Br` [4-bromoheptafluorotoluene], the CS/CS113 in data set [2] (setting [4]) is 37.9. Besides, the SP in data set [3] is recorded as 7.66 (cal/cm^3)^1/2. Also, the BP in data set [1] was 151.3 C.
